Assay results published in PubChem BioAssay AID1053169 (The Scripps Research Institute Molecular Screening Center, 2014).
Calls of active or inactive are those of the source. No rule for the calls is given here.

Each compound was assayed against Methyl-CpG-binding domain protein 2 (Homo sapiens) (UniProt Q9UBB5) (assay: MBD2-DBD methyl-oligonucleotide interaction blockers – biochemical, TR-FRET, DNA-binding domain, late stage, dose response (AID 1053169)). Settings: TR-FRET MBD2-DBD binding to methylated oligonucleotide.
Methyl-CpG-binding domain protein 2 (Homo sapiens), sequence (Q9UBB5 whole entry, looked up, the tested form may be a part): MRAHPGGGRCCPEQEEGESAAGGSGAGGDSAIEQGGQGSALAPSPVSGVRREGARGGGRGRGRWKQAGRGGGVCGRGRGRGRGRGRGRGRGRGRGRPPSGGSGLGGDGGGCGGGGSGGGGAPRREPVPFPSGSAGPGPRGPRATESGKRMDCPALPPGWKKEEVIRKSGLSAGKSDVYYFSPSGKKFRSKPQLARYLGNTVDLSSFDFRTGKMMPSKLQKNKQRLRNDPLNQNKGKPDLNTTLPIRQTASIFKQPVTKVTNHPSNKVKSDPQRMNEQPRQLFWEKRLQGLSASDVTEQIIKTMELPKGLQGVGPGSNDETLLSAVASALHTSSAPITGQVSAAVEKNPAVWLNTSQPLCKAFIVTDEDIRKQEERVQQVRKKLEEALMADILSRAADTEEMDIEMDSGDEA

IC50 | Structure (SMILES)
> 43.8 µM (inactive) | COc1ccc(NC(=O)CN2CCN(c3ccccc3C)CC2)cc1
> 43.8 µM (inactive) | Cc1ccc(Cl)cc1N1CCN(S(=O)(=O)c2ccc3c(c2)NC(=O)C(C)C(=O)N3)CC1 (stereo not given)
> 43.8 µM (inactive) | COc1ccccc1C(=O)COC(=O)c1ccc(N(C)C)cc1
> 43.8 µM (inactive) | CCCCn1c(NC(C)CC)nc2c1c(=O)[nH]c(=O)n2C (stereo not given)
> 43.8 µM (inactive) | CCOC(=O)c1ccc(NC(=O)COc2ccc(CNCCO)cc2OCC)cc1
> 43.8 µM (inactive) | CSc1ccc(OC2CCCCC2NS(=O)(=O)c2ccccc2)cc1 (stereo not given)
> 43.8 µM (inactive) | CCOC(=O)c1oc2ccc(CNC(C)(C)C)c(Cl)c2c1C
> 43.8 µM (inactive) | CCc1cccc(OCC(=O)Nc2ccc(S(=O)(=O)Nc3ccccn3)cc2)c1
> 43.8 µM (inactive) | CCOc1ccc(S(=O)(=O)N2CCCC(C(=O)NCC3CCCO3)C2)cc1Cl (stereo not given)
> 43.8 µM (inactive) | Cc1cc(C)n2nc(CC(=O)NCc3ccc(F)cc3)nc2n1
> 43.8 µM (inactive) | CC(C)C(=O)Nc1nnc(SCC(=O)NC2CCCC2)s1
> 43.8 µM (inactive) | CC(C)n1nc(C(=O)Nc2nc3ccccc3[nH]2)c2ccccc2c1=O
> 43.8 µM (inactive) | O=C(CSc1nc(-c2ccccc2)c(-c2ccccc2)o1)N1CCOCC1
> 43.8 µM (inactive) | COc1ccc(C(=O)N2CCC(C(=O)Nc3ccc(C)cc3)CC2)cc1
> 43.8 µM (inactive) | O=C(Nc1ccc(OCc2ccccc2)cc1)c1ccccc1
> 43.8 µM (inactive) | O=C(CSc1ccccn1)Nc1ccc(N2CCOCC2)cc1
> 43.8 µM (inactive) | CC(=O)N(c1ccccc1)c1nc(/C=C/C(=O)Nc2c(C)cc(C)cc2C)cs1
> 43.8 µM (inactive) | COc1ccc(NC(=O)Cn2cc(C(C)=O)c3ccccc32)cc1
> 43.8 µM (inactive) | CSc1ccc(OC2CCCCC2NS(=O)(=O)c2ccc(Cl)cc2)cc1 (stereo not given)
> 43.8 µM (inactive) | COc1ccc(NC(=O)COC(=O)CCc2ccc(S(=O)(=O)N3CCOCC3)cc2)cc1Cl
